# Strand notation (5' to 3'): a small letter for the sugar, then the base; units joined by * are phosphorothioate-linked, units joined directly phosphodiester-linked; [ ] holds rarer units or linkages, { } end groups; capitals alone tell only the bases. k = constrained ethyl (cEt); [5mC] = 5-methylcytosine; d = 2'-deoxy (DNA)
# Key:
# [1] = tested on: subcutaneous DEN carcinomas; experiment: Tumor volume in DEN-HCC model, in combination with a-PD1 antibody (Example 49); assay type: in vivo, C57BL/6 mice; details: for Average Tumor Volume: DEN-HCC subcutaneous model, C57BL/6 mice
# Method: N-nitrosodiethylamine (DEN) is administered at 25 mg/kg into 15 day old C57/BL6 mice. Carcinomas form 6 months post injection. After formation, carcinomas were then dissected from the liver and passaged subcutaneously into C57BL/6 male mice at 4-6 weeks of age to establish a subcutaneous model. For this experiment, mice were passaged with P8 subcutaneously established DEN carcinomas, rendering P9 for the duration of the experiment. Subcutaneous carcinomas are found to form at 4-6 weeks post implantation. Modified oligonucleotides 792169 (control compound) and 715491 (YAP-1 targeting modified oligonucleotide) were treated subcutaneously into groups of 7-8 mice at 10 mg/kg/week 5 times a week for 11 weeks (total of 55 doses). The PBS-only treated group and the control group were treated 5 times a week for 4 weeks (total of 20 doses). α-PD1 antibody (BioXCell) was treated intraperitoneally at 10 mg/kg/week twice a week for 4 weeks (total of 8 doses). F.D. refers to mice that were sacrificed because their tumor volume became too large.
# Yap1 mRNA = experiment: Antisense inhibition of human Yap1 in A-431 cells by cEt gapmers, single dose (Example 2, RTS4814); assay type: cell-based
# Procedure, shortened: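 A-431 cells (5,000/well) received 2,000 nM oligonucleotide by free uptake for about 48 h. Yap1 mRNA was then quantified by RT-qPCR with primer probe set RTS4814, normalized to RIBOGREEN total RNA, and reported as % of untreated control; asterisked values mark oligos inside the amplicon.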
# [2] = Tolerability in Balb/c mice, body and organ weights (Example 12); assay type: in vivo; details: male Balb/c mice, 50 mg/kg s.c. twice a week for four weeks (8 treatments), end of study (day 26)
# Method: (§1) Groups of male Balb/c mice at 6-7 weeks of age (obtained from Taconic) were injected subcutaneously twice a week for four weeks (for a total of 8 treatments) with 50 mg/kg of modified oligonucleotides. One group of male Balb/c mice was injected with PBS. Mice were euthanized on day 26 post start of treatment (24 hours following the final administration).
# (§2) Body weights of Balb/c mice were measured at the end of the study, and the average body weight for each group is presented in the table below. Modified oligonucleotides that caused any changes in organ weights outside the expected range for modified oligonucleotides were excluded from further studies.
# [3] = Tolerability in Balb/c mice, body and organ weights (Example 10); assay type: in vivo; details: 50 mg/kg subcutaneously twice a week for four weeks, end of study
# Method: as §1, with “4-6” for “6-7”
# as §2
# [4] = Tolerability in Balb/c mice, plasma chemistry markers (Example 11); assay type: in vivo; details: 50 mg/kg subcutaneously twice a week for four weeks
# Method: Balb/c mice were treated with modified oligonucleotides selected from studies described above and evaluated for changes in the levels of various plasma chemistry markers.
# as §1, with “4-6” for “6-7”
# [5] = Tolerability in Balb/c mice, body and organ weights (Example 11); assay type: in vivo; details: 50 mg/kg subcutaneously twice a week for four weeks, end of study
# Method: as §1, with “4-6” for “6-7”
# as §2
# [6] = Tolerability in CD-1 mice, plasma chemistry markers (Example 15); assay type: in vivo; details: male CD-1 mice, 50 mg/kg s.c. twice a week for four weeks (8 treatments), day 26
# Method: CD-1 mice were treated with modified oligonucleotides selected from studies described above and evaluated for changes in the levels of various plasma chemistry markers.
# Groups of four male CD-1 mice at 4-5 weeks of age (obtained from Charles River) were injected subcutaneously twice a week for four weeks (for a total of 8 treatments) with 50 mg/kg of modified oligonucleotides. One group of male CD-1 mice was injected with PBS. Mice were euthanized on day 26 post start of treatment (24 hrs following the final administration).
substance,measurement,setting,value
"CGCCGATAAGGTACAC (cEt gapmer, phosphorothioate backbone, further chemistry not given here) [ION 792169, reference compound]",Average Tumor Volume,[1]; day 1 on treatment,354 mm3
same,Average Tumor Volume,[1]; day 5 on treatment,376 mm3
same,Average Tumor Volume,[1]; day 8 on treatment,414 mm3
same,Average Tumor Volume,[1]; day 11 on treatment,523 mm3
same,Average Tumor Volume,[1]; day 15 on treatment,604 mm3
same,Average Tumor Volume,[1]; day 18 on treatment,633 mm3
same,Average Tumor Volume,[1]; day 23 on treatment,773 mm3
same,Average Tumor Volume,[1]; day 25 on treatment,864 mm3
same,Average Tumor Volume,[1]; day 28 on treatment,802 mm3
same,Average Tumor Volume,[1]; day 31 on treatment,F.D.
same,Average Tumor Volume,[1]; day 35 on treatment,F.D.
same,Average Tumor Volume,[1]; day 38 on treatment,F.D.
same,Average Tumor Volume,[1]; day 43 on treatment,F.D.
same,Average Tumor Volume,[1]; day 45 on treatment,F.D.
same,Average Tumor Volume,[1]; day 49 on treatment,F.D.
same,Average Tumor Volume,[1]; day 54 on treatment,F.D.
same,Average Tumor Volume,[1]; day 58 on treatment,F.D.
same,Average Tumor Volume,[1]; day 61 on treatment,F.D.
same,Average Tumor Volume,[1]; day 65 on treatment,F.D.
same,Average Tumor Volume,[1]; day 68 on treatment,F.D.
same,Average Tumor Volume,[1]; day 72 on treatment,F.D.
same,Average Tumor Volume,[1]; day 75 on treatment,F.D.
same,Average Tumor Volume,[1]; day 79 on treatment,F.D.
same,tumor volume (outcome in words),"[1]; subcutaneous DEN carcinomas in C57BL/6 male mice, 10 mg/kg/week, oligonucleotide subcutaneously, antibody intraperitoneally",sacrificed before the end of the experiment because their tumor volume became too large
"958499 (ATTAGAGTATGTGGCA; 3-10-3 cEt gapmer, further chemistry not given here) [compound 958499]",YAP1 (% UTC),"Yap1 mRNA; Table 32, Yap1 mRNA, percent of untreated control, 3-10-3 cEt gapmers targeting SEQ ID NO.: 1, and 2",2 % UTC
same,YAP1 (% UTC),"Yap1 mRNA; Table 33, Yap1 mRNA, percent of untreated control, 3-10-3 cEt gapmers targeting SEQ ID NO.: 1, and 2",4 % UTC
same,YAP1 (% UTC),"Yap1 mRNA; Yap1 mRNA as percent of untreated control, A-431 cells, 3-10-3 cEt gapmers targeting SEQ ID NO.: 1, and 2, Table 30",1 % UTC
same,YAP1 (% UTC),"Yap1 mRNA; Yap1 mRNA as percent of untreated control, A-431 cells, 3-10-3 cEt gapmers targeting SEQ ID NO.: 1, and 2, Table 31",1 % UTC
same,Kidney weight,[2],0.32 g
same,Liver weight,[2],1.44 g
same,Spleen weight,[2],0.14 g
same,body weight,[2],23 g
715487 (kA*kT*kT*dA*d[5mC]*dT*dT*d[5mC]*dA*dT*dA*dG*d[5mC]*kT*kT*kA) [compound 715487],Kidney weight,[3],0.36 g
same,Liver weight,[3],1.24 g
same,Spleen weight,[3],0.14 g
same,body weight,[3],23 g
same,ALT,[4],59 U/L
same,AST,[4],81 U/L
same,BUN,[4],16 mg/dL
same,TBIL,[4],0.18 mg/dL
same,Kidney weight,[5],0.42 g
same,Liver weight,[5],1.46 g
same,Spleen weight,[5],0.15 g
same,body weight,[5],27 g
same,ALB,[6],1.9 g/dL
same,ALT,[6],66 U/L
same,AST,[6],113 U/L
958499 (kA*kT*kT*dA*dG*dA*dG*dT*dA*dT*dG*dT*dG*kG*k[5mC]*kA) [Compound 958499],YAP1 (% UTC),"Yap1 mRNA; Table 18, A-431 cells, 5,000 cells per well, free uptake, 2,000 nM modified oligonucleotide, approx. 48 hours, RTS4814, normalized to RIBOGREEN, Yap1 mRNA as percent of untreated control",1 % UTC
same,YAP1 (% UTC),"Yap1 mRNA; Table 19, A-431 cells, 5,000 cells per well, free uptake, 2,000 nM modified oligonucleotide, approx. 48 hours, RTS4814, normalized to RIBOGREEN, Yap1 mRNA as percent of untreated control",2 % UTC
same,YAP1 (% UTC),"Yap1 mRNA; Table 20, Yap1 mRNA, percent of untreated control, 3-10-3 cEt gapmers targeting SEQ ID NO.: 1 and 2",1 % UTC
same,YAP1 (% UTC),"Yap1 mRNA; Table 21, Yap1 mRNA, percent of untreated control, 3-10-3 cEt gapmers targeting SEQ ID NO.: 1 and 2",1 % UTC
same,YAP1 (% UTC),"Yap1 mRNA; Table 22, Yap1 mRNA as percent of untreated control, 3-10-3 cEt gapmers, single dose",1 % UTC
same,YAP1 (% UTC),"Yap1 mRNA; Table 23, Yap1 mRNA as percent of untreated control, 3-10-3 cEt gapmers, single dose",2 % UTC
same,YAP1 (% UTC),"Yap1 mRNA; Table 24, Yap1 mRNA as percent of untreated control, 3-10-3 cEt gapmers targeting SEQ ID NO.: 1, and 2",2 % UTC
same,YAP1 (% UTC),"Yap1 mRNA; Table 25, Yap1 mRNA as percent of untreated control, 3-10-3 cEt gapmers targeting SEQ ID NO.: 1, and 2",1 % UTC

# From US11214803B2, “Modulators of YAP1 expression” (Ionis Pharmaceuticals, Inc., priority 2019, dated 2022)
